Columns and labels:
PDE5A1 [1] = target: T1, PDE5A1 (Homo sapiens, UniProt O76074); assay: radiometric 3H-cGMP hydrolysis assay, inhibition ratio at […]; assay type: biochemical; design: gene PDE5A; catalytic domain, amino acids 535–860
PDE5A1 [2] = target: T1, PDE5A1; design: gene PDE5A
PDE5A1 [3] = target: T1, PDE5A1; assay: radiometric 3H-cGMP hydrolysis assay, dose-response; assay type: biochemical; design: gene PDE5A; catalytic domain, amino acids 535–860
PDE10A = PDE10A (Homo sapiens, UniProt Q9Y233); assay: radiometric 3H-cAMP/3H-cGMP hydrolysis assay, single concentration; assay type: biochemical
PDE11A = PDE11A (Homo sapiens, UniProt Q9HCR9); assay: as above; assay type: biochemical
Sequence of PDE11A (Q9HCR9 whole entry): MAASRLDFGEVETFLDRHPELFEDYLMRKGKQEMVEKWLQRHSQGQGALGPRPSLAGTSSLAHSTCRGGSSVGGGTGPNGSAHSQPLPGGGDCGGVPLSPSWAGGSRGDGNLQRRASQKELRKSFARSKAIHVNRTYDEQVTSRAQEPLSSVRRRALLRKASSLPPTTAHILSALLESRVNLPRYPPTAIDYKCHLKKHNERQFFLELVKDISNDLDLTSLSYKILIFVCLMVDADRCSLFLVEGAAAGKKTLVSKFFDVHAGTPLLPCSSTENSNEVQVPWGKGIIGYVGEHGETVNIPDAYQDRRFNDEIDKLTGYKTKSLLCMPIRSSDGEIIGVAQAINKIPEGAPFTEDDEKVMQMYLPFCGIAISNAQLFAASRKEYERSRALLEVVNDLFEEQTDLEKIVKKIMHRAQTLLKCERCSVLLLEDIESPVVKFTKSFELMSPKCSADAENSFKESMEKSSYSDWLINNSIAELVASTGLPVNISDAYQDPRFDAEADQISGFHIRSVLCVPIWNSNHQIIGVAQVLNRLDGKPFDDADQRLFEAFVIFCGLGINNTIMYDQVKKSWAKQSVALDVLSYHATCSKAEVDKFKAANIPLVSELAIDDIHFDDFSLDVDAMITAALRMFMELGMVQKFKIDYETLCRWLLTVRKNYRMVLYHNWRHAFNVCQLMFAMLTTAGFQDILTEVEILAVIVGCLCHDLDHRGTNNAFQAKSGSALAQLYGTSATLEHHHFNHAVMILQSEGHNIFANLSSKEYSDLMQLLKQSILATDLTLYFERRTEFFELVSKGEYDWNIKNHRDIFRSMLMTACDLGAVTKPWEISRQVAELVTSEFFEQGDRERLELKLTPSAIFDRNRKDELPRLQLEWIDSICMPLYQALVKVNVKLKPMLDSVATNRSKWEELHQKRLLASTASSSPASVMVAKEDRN

Sequence of PDE10A (Q9Y233 whole entry): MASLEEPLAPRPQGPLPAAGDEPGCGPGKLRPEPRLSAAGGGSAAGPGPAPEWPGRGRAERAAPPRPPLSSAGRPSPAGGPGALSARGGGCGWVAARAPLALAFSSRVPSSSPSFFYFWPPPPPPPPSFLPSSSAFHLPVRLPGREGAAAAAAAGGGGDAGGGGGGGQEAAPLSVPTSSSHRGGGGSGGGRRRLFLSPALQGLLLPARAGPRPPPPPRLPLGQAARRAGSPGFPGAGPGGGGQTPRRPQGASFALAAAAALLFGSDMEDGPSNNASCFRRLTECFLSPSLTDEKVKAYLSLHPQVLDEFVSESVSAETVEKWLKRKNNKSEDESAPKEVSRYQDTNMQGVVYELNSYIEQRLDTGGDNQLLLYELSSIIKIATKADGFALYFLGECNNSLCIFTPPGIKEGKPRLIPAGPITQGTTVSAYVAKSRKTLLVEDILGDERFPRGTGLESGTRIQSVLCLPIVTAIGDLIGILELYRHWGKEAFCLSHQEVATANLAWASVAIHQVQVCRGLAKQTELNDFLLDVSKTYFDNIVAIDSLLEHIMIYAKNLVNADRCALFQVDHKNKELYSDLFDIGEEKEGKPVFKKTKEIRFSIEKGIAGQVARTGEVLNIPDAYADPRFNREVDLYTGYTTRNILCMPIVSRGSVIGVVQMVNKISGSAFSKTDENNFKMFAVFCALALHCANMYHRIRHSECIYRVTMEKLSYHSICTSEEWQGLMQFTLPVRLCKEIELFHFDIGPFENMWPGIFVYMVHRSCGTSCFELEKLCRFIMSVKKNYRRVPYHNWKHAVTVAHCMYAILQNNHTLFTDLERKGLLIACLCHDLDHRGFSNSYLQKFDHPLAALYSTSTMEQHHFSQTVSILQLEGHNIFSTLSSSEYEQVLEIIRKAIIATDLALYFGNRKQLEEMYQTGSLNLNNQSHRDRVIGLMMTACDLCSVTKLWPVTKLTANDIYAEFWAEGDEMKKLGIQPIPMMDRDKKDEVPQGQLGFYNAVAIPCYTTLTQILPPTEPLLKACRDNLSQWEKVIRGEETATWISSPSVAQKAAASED

Row | inhibition at 10 µM (PDE5A1 [1]) | SMILES | other results
1 | > 50% | COc1ccc(-c2cc3[nH]nc(N)c3c(=O)[nH]2)cc1 [AR-270/43409613] | 
2 | > 50% | COc1cc([N+](=O)[O-])cc2c1C(=O)Nc1ccccc1O2 [AG-205/40649212] | 
3 | > 50% | COc1cccc2c1C(=O)c1c(O)ccc(O)c1C2=O [AG-650/41069360] | 
4 |  | CCCc1nn(C)c2c(=O)[nH]c(-c3cc(S(=O)(=O)N4CCN(C)CC4)ccc3OCC)nc12 [Sildenafil] | % inhibition at 10 nM (PDE5A1 [2]): > 50
5 | > 50% | CC1(C2CCc3c(O)c4c(c(O)c3C2)C(=O)c2ccccc2C4=O)OCCO1 (stereo not drawn) [AE-508/36401018] | 
6 |  | Cc1sc(N)c2c(=O)oc3c4ccccc4ccc3c12 [AI-898/12177002] | IC50 (PDE5A1 [3]): 1600 nM; % inhibition at 10 μM (PDE10A): 79; % inhibition at 10 μM (PDE11A): 63
7 | > 50% | COc1cccc2c1C(=O)/C(=C/c1ccc(N(C)C)cc1)C2 [AT-051/43410123] | 

Reference: PMC11820102, “Molecular Dynamics-Assisted Discovery of Novel Phosphodiesterase-5 Inhibitors Targeting a Unique Allosteric Pocket” (Molecules, 2025)
